Measured values as given in patent publication US9718809B2, “Bisarylsulfonamides useful in the treatment of inflammation and cancer” (Kancera AB, priority 2011, dated 2017).
Where a name gives a salt, the structure may show the parent alone.

Each compound was assayed on F-2,6-P2 in PANC-1 cells (assay: Quantification of F-2,6-P2 (Van Schaftingen coupled enzyme assay) in PANC-1 cells). Conditions: Homo sapiens; PANC-1 cells; read-out: IC50 based on quantification of F-2,6-P2.
Type: cell-based, human
Excerpt: A method for quantification of F-2,6-P2 has been described by Van Schaftingen et al. (1982) Eur. J. Biochem. 129, 191-5. This sensitive assay is based on the potent activation of pyrophosphate dependent phosphofructokinase-1 (PPi-PFK) from potato tubers by F-2,6-P2. The use of a series of coupled enzymes leads to a consumption of NADH (nicotinamide adenine dinucleotide) that can be followed spectrophotometrically (an updated protocol is available in Van Schaftingen, (1984) Methods of Enzymatic Analysis (Bergmeyer, H. U., ed.), 3rd edn., vol. 6, pp. 335-341, Verlag Chemie, Weinheim). A protocol for measurements in 96-well microtiter plate format is also available (Bruni et al., (1989) Anal. Biochem. 178, 324-6).
The levels of F-2,6-P2 have been determined using the van Shaftingen assay as described in the protocol below, in six different cancer cell lines endogenously expressing varying levels of the different isoforms of PFK-2/BPase-2 (MCF-7, PANC-1, NUGC-3, SW480, SW620 and MIA PaCa-2). All reagents were purchased from commercial sources or prepared in-house.
Cell line B (PANC-1, human pancreatic carcinoma cell line): PANC-1 cells (ATCC-CRL-1469), lot. no. 58564651. Cells were seeded at a concentration of ˜250 000 cells/mL in 100 μL growth medium (˜25 000 cells/well).
Growth medium (cell lines B-F): Dulbecco's Modified Eagle's Medium, DMEM, VWR, LONZ12-604F; 10% FBS, Invitrogen, 10270-106.
Starvation medium (cell lines A-F): DMEM/F12 without phenol red and glucose free, SVA, 991373; 0.25% FBS, Invitrogen, 10270-106.
Induction medium (cell lines A-F): DMEM/F12 without phenol red and glucose free, SVA, 991373; 0.25% FBS, Invitrogen, 10270-106 (same as starvation medium).
Cells were seeded in 96-well Corning Costar tissue culture plates (CLS3595, Sigma-Aldrich) using the concentrations specified above for the different cell lines A-F and incubated over night at 37° C. and 5% CO2. Row A in the plate was left empty and the cell lines added to rows B-H. Next day the growth medium was discarded and replaced with 100 μL starvation medium. The plates were incubated for 18 h at 37° C. and 5% CO2. After 18 h of starvation the cells were induced with 100 μL compound or control solutions. Compounds were either tested in two concentrations (50 μM and 10 μM) or in dose response curves starting from 50 μM. The final DMSO concentration in assay plates was 0.5%. Also a dose response curve of a reference inhibitor was included in row H on each plate. All compounds were tested in duplicate plates. Compounds (in 96 well CLS 3365, Sigma-Aldrich plates) were serial diluted in DMSO from 10 mM compound DMSO stock solutions with Janus (automated liquid handling workstation from PerkinElmer). Five μL were transferred to a Greiner deep well plate (736-0155, VWR) with 495 μL starvation medium. The final start concentration of compounds in the dilution plate was 100 μM, 1% DMSO. For compounds tested as single points, 10 mM compound solutions were diluted five fold in DMSO to 2 mM, followed by the transfer of 5 μL to separate dilution plates with 495 μL starvation medium. The final concentrations of compounds in these dilution plates were 100 or 20 μM, respectively, and final concentration of DMSO was 1%. The plates were incubated at 37° C. and 5% CO2 for 1 h, followed by the addition of 10 μL 20 mM D-glucose in starvation medium. Controls, with and without 1 mM glucose, were included in row B. The final assay volume was 210 μL per well. After 2 h of incubation at 37° C. and 5% CO2, the supernatants were discarded and the cells lysed by the addition of 25 μL 250 mM NaOH. The plates were incubated at 37° C. and 5% CO2 for 5 min followed by an addition of 75 μL MilliQ dH2O. The supernatants were further diluted with 210 μL MilliQ dH2O to a final concentration of 20 mM NaOH. 200 μL were transferred to NUNC 96-well plates (7322661, VWR) and the plates were sealed and stored at −20° C. until analysis. […]

Row | SMILES | IC50 [µM]
1 | COCCOC(=O)c1ccc(NS(=O)(=O)c2cccc(-c3ccc4c(c3)CCO4)c2)cc1O [Example 175, 2-Methoxyethyl 4-({[3-(2,3-dihydro-1-benzofuran-5-yl)phenyl]sulfonyl}amino)-2-hydroxybenzoate] | 0.7
2 | O=C(OC1CCOC1)c1ccc(NS(=O)(=O)c2cc(Cl)sc2Cl)cc1O (centres unmarked) [Example 67, Tetrahydrofuran-3-yl 4-{[(2,5-dichloro-3-thienyl)sulfonyl]amino}-2-hydroxybenzoate] | 5.2
3 | COCCOC(=O)c1ccc(NS(=O)(=O)c2c(Cl)sc(Cl)c2Br)cc1O [Example 197, 2-Methoxyethyl 4-{[(4-bromo-2,5-dichlorothiophen-3-yl)sulfonyl]amino}-2-hydroxybenzoate] | 3.5
4 | COC(=O)c1ccc(NS(=O)(=O)c2cnc(Cl)c(Br)c2)cc1O [Example 14, Methyl 4-{[(5-bromo-6-chloropyridin-3-yl)sulfonyl]amino}-2-hydroxybenzoate] | 1.9
5 | COC(=O)c1ccc(NS(=O)(=O)c2cccc(-c3cccc(C(=O)OC(C)C)c3)c2)cc1O [Example 128, 1-Methylethyl 3′-{[3-hydroxy-4-(methoxycarbonyl)phenyl]sulfamoyl}biphenyl-3-carboxylate] | 13.3
6 | COC(=O)c1ccc(NS(=O)(=O)c2cc(C)c(Br)s2)cc1O [Example 58, Methyl 4-{[(5-bromo-4-methylthiophen-2-yl)sulfonyl]amino}-2-hydroxybenzoate] | 5.6
7 | O=C(OCCCN1CCOCC1)c1ccc(NS(=O)(=O)c2cc(Cl)cc(Cl)c2)cc1O [Example 187, 3-Morpholin-4-ylpropyl 4-{[(3,5-dichlorophenyl)sulfonyl]amino}-2-hydroxybenzoate trifluoroacetate] | 6.8
8 | Cc1cc(NCCCOC(=O)c2ccc(NS(=O)(=O)c3cccc(-c4cc(F)ccc4O)c3)cc2O)no1 [Example 232, 3-[(5-Methylisoxazol-3-yl)amino]propyl 4-{[(5′-fluoro-2′-hydroxybiphenyl-3-yl)sulfonyl]amino}-2-hydroxybenzoate trifluoroacetate] | 0.8
9 | COC(=O)c1ccc(NS(=O)(=O)c2cc(Cl)cc(Cl)c2)cc1O [Example 22, Methyl 4-{[(3,5-dichlorophenyl)sulfonyl]amino}-2-hydroxybenzoate] | 1.7
10 | O=C(OCc1ccccc1)c1ccc(NS(=O)(=O)c2cc(Cl)c(Cl)s2)cc1O [Example 71, Benzyl 4-{[(4,5-dichloro-2-thienyl)sulfonyl]amino}-2-hydroxybenzoate] | 0.8
11 | COC(=O)c1ccc(NS(=O)(=O)c2ccc(CNC(=O)c3ccccc3)s2)cc1O [Example 41, Methyl 2-hydroxy-4-{[(5-{[(phenylcarbonyl)amino]methyl}thiophen-2-yl)sulfonyl]amino}benzoate] | 19
12 | COC(=O)c1ccc(NS(=O)(=O)c2cccc(-c3ccc(OC(F)(F)F)cc3)c2)cc1O [Example 99, Methyl 2-hydroxy-4-({[4′-(trifluoromethoxy)biphenyl-3-yl]sulfonyl}amino)benzoate] | 2.4
13 | COC(=O)c1ccc(NS(=O)(=O)c2ccc(F)c(Cl)c2)cc1O [Example 32, Methyl 4-{[(3-chloro-4-fluorophenyl)sulfonyl]amino}-2-hydroxybenzoate] | 4.8
14 | O=C(OC1CCN(Cc2ccccc2)C1)c1ccc(NS(=O)(=O)c2c(Cl)sc(Cl)c2Cl)cc1O (centres unmarked) [Example 204, 1-Benzylpyrrolidin-3-yl 2-hydroxy-4-{[(2,4,5-trichloro-3-thienyl)sulfonyl]amino}benzoate] | 1.8
15 | COC(=O)c1ccc(NS(=O)(=O)c2cnc(Cl)c(-c3ccc4c(c3)CCO4)c2)cc1O [Example 155, Methyl 4-({[6-chloro-5-(2,3-dihydro-1-benzofuran-5-yl)pyridin-3-yl]sulfonyl}amino)-2-hydroxybenzoate] | 4.9
16 | O=C(OCCCNc1cccnc1)c1ccc(NS(=O)(=O)c2cccc(-c3cc(F)ccc3O)c2)cc1O [Example 230, 3-(Pyridin-3-ylamino)propyl 4-{[(5′-fluoro-2′-hydroxybiphenyl-3-yl)sulfonyl]amino}-2-hydroxybenzoate trifluoroacetate] | 1.9
17 | COC(=O)c1ccc(NS(=O)(=O)c2cccc(-c3ccncc3)c2)cc1O [Example 89, Methyl 2-hydroxy-4-{[(3-pyridin-4-ylphenyl)sulfonyl]amino}benzoate trifluoroacetate] | 6.7
18 | COC(=O)c1ccc(NS(=O)(=O)c2cc(C(F)(F)F)oc2C)cc1O [Example 10, Methyl 2-hydroxy-4-({[2-methyl-5-(trifluoromethyl)furan-3-yl]sulfonyl}amino)benzoate] | 6.7
19 | COC(=O)c1ccc(NS(=O)(=O)c2ccc(F)c3ccccc23)cc1O [Example 33, Methyl 4-{[(4-fluoro-1-naphthyl)sulfonyl]amino}-2-hydroxybenzoate] | 3.6
20 | COC(=O)c1ccc(NS(=O)(=O)c2cc(Cl)sc2Cl)cc1O [Example 25, Methyl 4-{[(2,5-dichloro-3-thienyl)sulfonyl]amino}-2-hydroxybenzoate] | 2.3
21 | COC(=O)c1ccc(NS(=O)(=O)c2scc(Br)c2Br)cc1O [Example 57, Methyl 4-{[(3,4-dibromothiophen-2-yl)sulfonyl]amino}-2-hydroxybenzoate] | 5.7
22 | COC(=O)c1ccc(NS(=O)(=O)c2ccc(-c3cc(F)ccc3F)s2)cc1O [Example 118, Methyl 4-({[5-(2,5-difluorophenyl)thiophen-2-yl]sulfonyl}amino)-2-hydroxybenzoate] | 2
23 | COC(=O)c1ccc(NS(=O)(=O)c2cccc(Br)c2)cc1O [Example 5, Methyl 4-{[(3-bromophenyl)sulfonyl]amino}-2-hydroxybenzoate] | 12.3

Same assay, conditions: at 12.5-50 μM in PANC-1 cells

Row | SMILES | inhibition (F-2,6-P2 levels) [%]
24 | COC(=O)c1ccc(NS(=O)(=O)c2cc(Cl)c(-c3ccccc3OC)s2)cc1O [Example 207, Methyl 4-({[4-chloro-5-(2-methoxyphenyl)thiophen-2-yl]sulfonyl}amino)-2-hydroxybenzoate] | ≥ 50
25 | COC(=O)c1ccc(NS(=O)(=O)c2ccc(C(C)(C)C)cc2)cc1O [Example 36, Methyl 4-{[(4-tert-butylphenyl)sulfonyl]amino}-2-hydroxybenzoate] | ≥ 50
26 | COC(=O)c1ccc(NS(=O)(=O)Cc2cccc(Br)c2)cc1O [Example 23, Methyl 4-{[(3-bromobenzyl)sulfonyl]amino}-2-hydroxybenzoate] | ≥ 50
27 | COC(=O)c1ccc(NS(=O)(=O)c2cccc(OC(F)F)c2)cc1O [Example 31, Methyl 4-({[3-(difluoromethoxy)phenyl]sulfonyl}amino)-2-hydroxybenzoate] | ≥ 50
28 | O=C(Oc1ccccc1)c1ccc(NS(=O)(=O)c2cc(Cl)c(Cl)s2)cc1O [Example 73, Phenyl 4-{[(4,5-dichloro-2-thienyl)sulfonyl]amino}-2-hydroxybenzoate] | ≥ 50
29 | COC(=O)c1ccc(NS(=O)(=O)c2ccc(-c3ccccc3)cc2)cc1O [Example 35, Methyl 4-[(biphenyl-4-ylsulfonyl)amino]-2-hydroxybenzoate] | ≥ 50
